Measurements taken from patent publication US20100267731A1, “USE OF TRANSFORMING GROWTH FACTOR-B RECEPTOR INHIBITORS TO SUPPRESS OCULAR SCARRING” (Summa Health Systems, LLC, priority 2009, published 2010).

How the values were obtained:
[1] = tested on: New Zealand white rabbits; assay: Post surgery IOP in vivo; set-up: species or system New Zealand white rabbit; conditions: rabbit GFS, versus untreated eye
Procedure: IOP for the animals in groups A-D was measured with a TONO-PEN AVIA® (Reichert Ophthalmic Instruments, Depew, N.Y.) by gently touching the cornea of each subject after topical anesthesia was applied with 0.5% proparacaine. The IOP reading was omitted if its confidence interval was less than 95%. An average of three measurements was taken to deduce IOP.

[2] = tested on: New Zealand white rabbits; assay: Hematoxylin and eosin staining ex vivo of eyes after GFS; type: in vivo; conditions: for infiltration of inflammatory cells and scarring in the subconjunctival space: H&E, five days after surgery
Procedure: Five days after surgery, the subjects in Groups A-D were euthanized with Fatal-plus™ (Vortech Pharmaceutical, Dearborn, Mich.) following the manufacturer's instructions. The subject's eyes were enucleated with palpebral margins to keep the conjunctiva epithelium and the subconjunctival space intact. Enucleated eyes were fixed with 10% buffered formalin and 5 μm thick paraffin sections were prepared. The sections were stained with hematoxylin and eosin (H&E) for histological examination, and images were captured using an Olympus DX51 light microscope and DP controller (Olympus, Tokyo, Japan).

[3] = tested on: subconjunctival tissue fibroblast outgrowth; assay: Subconjunctival tissue fibroblast outgrowth assay ex vivo; type: cell-based, New Zealand white rabbit; conditions: for cell outgrowth length, explant from 180° control: 180° from the surgical site (180° control)
Procedure: Under an ophthalmic surgical microscope, subconjunctival tissues were dissected from the surgical site and 180 (6-o'clock position) from the surgical site (the 180° control). Each biopsy specimen (explant) was placed in a 25 cm^2 cell culture flask with complete media. […] The cell outgrowth, in mm, from the edge of each explant was observed, and the length of the outgrowth in 4 quadrants was measured.

[4] = tested on: cultured rabbit subconjunctival fibroblasts; assay: Toxicity of ALK-5 inhibitors in vitro (cell count by hemocytometer); type: cell-based, New Zealand white rabbit; conditions: 10.0 of inhibitor pre-treated one hour, then 2 ng/ml TGF-β2 up to 48 hours
Procedure: Sample fibroblasts were obtained from New Zealand white rabbit eyes. The fibroblasts were derived from the subconjunctival tissues isolated from the eyes of the subjects. The cells were maintained in 25 cm^2 flask using 2 ml of medium composed of Eagle's minimal essential medium, 10% fetal bovine serum, 5% calf serum, essential and nonessential aminoacids, and antibiotics. When the cells reached confluence, they were trypsinized and passaged.
Three samples of the fibroblasts were prepared. The first sample, sample A, included fibroblast cultures treated with 2 ng/ml of TGF-β2 for up to 48 hours. The second sample, sample B, included fibroblast cultures that were untreated. The third sample included fibroblast cultures pre-treated with 2 ml of a medium including […] of ALK-5 inhibitor SB-505124 for one hour, and were additionally treated with additional 2 ng/ml of TGF-β2 (R&D Systems, Minneapolis, Minn.) for up to 48 hours.
The number of cells were counted using a hemocytometer (Hausser Scientific, Horsham, PC) after trypsinization. […] Therefore, in addition to inhibiting the expression of TGF-β2 and mitigating the ocular scarring that may result after GFS by using an ALK-5 type inhibitor, the ALK-5 inhibitor appears to have the added benefit of not destroying healthy cells around the surgical site that prevent post-surgery infection.

[5] = explants taken five days after GFS

SMILES | period IOP of treated eyes was lowered after GFS (in words) ([1]; MMC control) | infiltration of inflammatory cells and scarring in the subconjunctival space [2] | cell outgrowth length, explant from 180° control ([3]; over 18 days) | cell number versus samples untreated or treated with TGF-β2 alone [4] | time IOP of treated eyes was lowered after GFS ([1]; SB-505124 tablet) | signs of tissue toxicity ([2]; rabbit, in vivo) | subconjunctival blood vessels ([2]; rabbit, in vivo) | cell outgrowth from the edge of the subconjunctival tissue explant (qualitative) [3, 5] | difference in cell outgrowth versus untreated group [3, 5] | cell outgrowth length, explant from surgical site ([3]; surgical site, over 18 days)
CO[C@@]12[C@H](COC(N)=O)C3=C(C(=O)C(C)=C(N)C3=O)N1C[C@@H]1N[C@@H]12 [MMC, mitomycin C] | throughout the observation period | only a few inflammatory cells and mild scarring | approximately 7 mm |  |  |  |  |  |  | 
Cc1cccc(-c2[nH]c(C(C)(C)C)nc2-c2ccc3c(c2)OCO3)n1 [SB-505124] |  | only a few inflammatory cells and mild scarring | approximately 7 mm | no measurable difference in cell number | up to 10 days | no or very low signs of tissue toxicity | seen | robust | no significant difference | approximately 7 mm
